One data set deals with T1, FXR (Homo sapiens, UniProt Q96RI1).
T1 sequence (Q96RI1 262-486 limits assumed): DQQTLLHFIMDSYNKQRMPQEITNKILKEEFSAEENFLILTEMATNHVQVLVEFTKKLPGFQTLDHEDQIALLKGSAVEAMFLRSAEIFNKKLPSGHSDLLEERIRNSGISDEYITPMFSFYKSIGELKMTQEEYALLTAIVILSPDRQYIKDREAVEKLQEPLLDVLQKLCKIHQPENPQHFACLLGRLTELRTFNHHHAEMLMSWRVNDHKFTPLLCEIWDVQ
The experiment in a line: FXR agonistic activity, luciferase assay. Conditions: luc2P-GAL4-HEK293 cells transfected with pBIND-FXR, 24 hours. Type of data set: cell-based. As to the method: The FXR agonistic activity of the compound of the present invention was evaluated using the luciferase assay.
The experimental process comprises the follows. The luc2P-GAL4-HEK293 stably transfected cell line (the cell line was established by transfecting pGL4.35 plasmid with HEK293 cells which was then subjected to Hygromycin B screening. The cell contained 9×GAL4 UAS and firefly luciferase reporter gene. The ligand-activated LBD-GAL4 DBD fusion protein can enter the nucleus to bind to 9×GAL4 UAS and activate the transcription of the downstream luciferase reporter gene) was transferred to a 96-well plate with […] per well. pBIND-FXR (Which was constructed by inserting FXR-LBD into pFN26A-BIND hRluc-neo Flexi® vector. The plasmid was 7.5 kb in size, Amp resistant, contained FXR-LBD, and can express FXR-LBD and GAL4 DBD fusion proteins) was transfected using X-tremeGENE HP transfection reagent. The ratio of plasmid to transfection reagent was 1 μg: 2 μl. The specific amount was 100 ng of plasmid and 0.2 μl of X-tremeGENE HP transfection reagent per well. The test compounds (the highest concentration of each compound was 30 μM, 3-fold dilution, a total of 10 concentrations) were added to induce the expression of luciferase. After 24 hours, the 96-well plate containing the test cells was taken out from the incubator, and placed at room temperature. Dual-Glo® Luciferase Reagent with the volume equal to the volume of the medium in the well (80 μl/well) was added to each well and mixed well. The plate was incubated at room temperature for 20 minutes to allow the cells to be fully lysed. All the liquid in the plate was transferred to a 96-well microtiter plate, and the firefly luciferin value was measured with a multi-function plate reader (manufacturer: Bio Tek (USA); model: Synergy4). Dual-Glo® a Stop & Glo® Reagent with the volume equal to the volume of the initial medium (80 μl/well) was added to each well and mixed well. The plate was incubated at room temperature for 10 minutes, and the renilla luciferin value was measured. The measurement order of renilla fluorescence should be the same as that of firefly fluorescence. Curve fitting and EC50 calculation were conducted using GraphPad Prism 5 software by nonlinear regression method. The fitting equation is: Y=Bottom+(Top−Bottom)/(1+10^((Log EC50−X)*HillSlope)), wherein EC50 refers to the semi-effective concentration, Top refers to the maximum effect, Bottom refers to the blank effect, and HillSlope refers to the slope.

The subject of data set [1] is cholestasis rat induced by ANIT. Kind of data set: Efficacy on the cholestasis rat model induced by 1-naphthyl isothiocyanate (ANIT). Type of data set: in vivo, SD rats. Also on record: ALT / AST / GGT / TBA: unit not given here. Conditions: for level of ALT, AST, GGT and TBA in the serum of ANIT rat (in words): 3 and 10 mg/kg/d, conclusion of Test Example 2; for ALT / AST / GGT / TBA: serum, 4 days, ANIT rat. The procedure: Animals: SD rats, male, 7 to 8 weeks old, weight: 220 to 240 g, purchased from Beijing Vital River Laboratory Animal Technology Co., Ltd., SPF grade, Certificate No.: SCXK (Beijing) 2016-0011, license issuing administration: Beijing Municipal Commission of Science and Technology.
Sample formulation: The compound of the present invention was added to DMSO, and dissolved completely by ultrasound. 0.5% CMC-Na was added to constant volume (DMSO: 0.5% CMC-Na=1:99), and the solution was homogenized by ultrasound for later use.
After 3 to 5 days of acclimation, the animals were divided into 20 groups according to body weight: normal group, model group, Example 8 (3 mg/kg/d, 10 mg/kg/d) group, Example 11 (3 mg/kg/d, 10 mg/kg/d) group, Example 12 (3 mg/kg/d, 10 mg/kg/d) group, Example 14 (3 mg/kg/d, 10 mg/kg/d) group, Example 20 (3 mg/kg/d, 10 mg/kg/d) group, Example 22 (3 mg/kg/d, 10 mg/kg/d) group, Example 26 (3 mg/kg/d, 10 mg/kg/d) group, Example 28 (3 mg/kg/d, 10 mg/kg/d) group, and Example 29 (3 mg/kg/d, 10 mg/kg/d) group, with 10 rats for each group. Intragastric administration was conducted with an administration volume of 10 mL/kg, once a day, for a total of 4 days. On Day 2, ANIT (1-naphthyl isothiocyanate, Macklin, purity: 98%, item number: N814658, CAS number: 551-06-4, specification: 5 g/bottle, storage conditions: 2 to 8 degrees, batch number: C10116101) with a dose of 50 mg/kg and an administration volume of 5 mL/kg was administered intragastrically once to each animal (except for animals in the normal group) 4 hours after the administration. The animals were fasted on Day 4 morning. The animals were anesthetized by isoflurane inhalation using a small animal anesthesia machine. Blood was collected from the venous plexus behind the eyeball using a capillary glass tube (about 1 ml per animal), and then left to stand for about one hour. It was centrifuged at 3500 rpm for 10 minutes to obtain the serum. ALT, AST, GGT and TBA indexes as well as the plasma concentration of the compound were determined using an AU480 automatic biochemical analysis system (BECKMAN COULTER). Liver was collected, weighed, and cutted into pieces. Normal saline was added (liver weight: normal saline=1:2), and the mixture was homogenized and freezed. The concentration of the compound in liver was determined using an ultra performance liquid chromatograph (Shimadzu, LC 30AD) and triple quadrupole mass spectrometer (AB, TQ5500).

Data set [2] is described as follows: Visual inspection of solubility of test sample in extracellular fluid. Format: physicochemical. Conditions: 1 nM to 1 μM in extracellular fluid pH 7.4, DMSO 0.1%. The procedure:
Extracellular fluid: 140 mM NaCl, 3.5 mM KCl, 1 mM MgCl2, 2 mM CaCl2, 10 mM glucose, 10 mM HEPES, 1.25 mM NaH2PO4, pH=7.4 (adjusted by NaOH). The stock solution of the compound of Example 8 of the present invention (30.26 mM solution in DMSO) was successively diluted with 10 mL of extracellular fluid to obtain 0.3 μM, 1 μM, 3 μM, […], and 30 μM solutions. […] 10 mg of Cisapride was dissolved in 2066.29 μL of dimethyl sulfoxide (DMSO) to obtain a 10 mM stock solution. The Cisapride stock solution was successively diluted with dimethyl sulfoxide (DMSO) to obtain a total of 4 concentrations of 1 μM, 10 μM, 100 μM and 1 mM. Before the test, 10 μL of the diluent at each concentration was added to 10 mL of extracellular fluid to ensure that the DMSO concentration was 0.1%. The final working concentration of Cisapride was 1 nM, 10 nM, 100 nM and 1 μM.

On to `O=C(O)c1cccc(-c2nnc(N3[C@@H]4CC[C@H]3C[C@@H](OCc3c(-c5ccccc5OC(F)(F)F)noc3C3CC3)C4)o2)c1` [Example 28], for which the EC50 at FXR was under 25 nM. Also, the “level of ALT, AST, GGT and TBA in the serum of ANIT rat (in words)” value (“level of ALT, AST, GGT and TBA” below) in data set [1] was “significantly reduce”. In data set [1] (3 mg/kg/d intragastric), this compound returned an ALT of 147.1 ± 66.2, an AST of 342.7 ± 153.6, a GGT of 2.3 ± 0.5 and a TBA of 66.2 ± 58.4. In data set [1] (10 mg/kg/d intragastric), this compound showed an ALT of 46.6 ± 12.1, an AST of 150.8 ± 28.7, a GGT of 1.9 ± 0.5 and a TBA of 20.5 ± 6.0.

As for `O=C(O)c1csc(-c2nnc(N3[C@@H]4CC[C@H]3C[C@@H](OCc3c(-c5c(Cl)cccc5Cl)noc3C3CC3)C4)o2)c1` [Example 20], at FXR, the EC50 is 50 to 100 nM. Besides, in data set [1] (3 mg/kg/d intragastric), the ALT is 141.5 ± 101.4, the AST came to 400.2 ± 304.4, the GGT turned out to be 2.8 ± 1.2 and the TBA came out at 119.5 ± 124.7. Moreover, in data set [1] (10 mg/kg/d intragastric), the ALT turned out to be 50.9 ± 22.4, the AST is given as 139.8 ± 58.4, the GGT is given as 2.6 ± 0.5 and the TBA was found to be 16.1 ± 8.0.

With `O=C(O)c1ccc(-c2nnc(N3[C@@H]4CC[C@H]3C[C@@H](OCc3c(-c5ccccc5OC(F)(F)F)noc3C3CC3)C4)o2)cc1F` [Example 26], the EC50 on FXR lay in the range of 100 to 500 nM. Moreover, in data set [1], the “level of ALT, AST, GGT and TBA” value is on record as “significantly reduce”. In data set [1] (3 mg/kg/d intragastric), this compound gave an ALT of 62.2 ± 27.6, an AST of 187.7 ± 50.4, a GGT of 1.9 ± 0.8 and a TBA of 23.2 ± 10.1. Also, in data set [1] (10 mg/kg/d intragastric), the ALT was 50.0 ± 11.2, the AST was 162.3 ± 27.7, the GGT is listed as 1.4 ± 0.7 and the TBA is given as 35.3 ± 13.2.

For `O=C(O)c1ccc(-c2nnc(N3[C@@H]4CC[C@H]3C[C@@H](OCc3c(-c5ccccc5OC(F)(F)F)noc3C3CC3)C4)o2)c(F)c1` [Example 29], on FXR, the EC50 lay in the range of 100 to 500 nM. The “level of ALT, AST, GGT and TBA” value in data set [1] is “significantly reduce”. In data set [1] (3 mg/kg/d intragastric), this compound came in with an ALT of 82.0 ± 44.5, an AST of 256.0 ± 168.8, a GGT of 2.3 ± 1.1 and a TBA of 51.7 ± 65.2. For the same compound, in data set [1] (10 mg/kg/d intragastric), the ALT amounted to 77.8 ± 69.5, the AST was 189.4 ± 76.9, the GGT is 1.9 ± 0.4 and the TBA came to 26.8 ± 13.6.

`O=C(O)c1ccc(-c2nnc(N3[C@@H]4CC[C@H]3C[C@@H](OCc3c(-c5c(Cl)cccc5Cl)noc3C3CC3)C4)o2)cc1F` [Example 12]: the EC50 at FXR was 100 to 500 nM. Moreover, the “level of ALT, AST, GGT and TBA” value in data set [1] is “significantly reduce”. In data set [1] (3 mg/kg/d intragastric), this compound had an ALT of 122.5 ± 89.7, an AST of 314.2 ± 237.9, a GGT of 2.2 ± 0.8 and a TBA of 69.0 ± 66.7. Also, in data set [1] (10 mg/kg/d intragastric), the ALT is 54.7 ± 27.3, the AST is 139.3 ± 34.6, the GGT was found to be 1.9 ± 0.5 and the TBA was 25.4 ± 14.3.

Consider `COc1cc(N)c(Cl)cc1C(=O)NC1CCN(CCCOc2ccc(F)cc2)CC1OC` (centres unmarked) [Cisapride, reference compound], for which the “solubility, visually inspected” value in data set [2] was “completely dissolved without visible precipitation”.

As a reminder, the EC50 is the midpoint of the concentration-response curve.

The record behind these values is patent US20220127258A1, “AROMATIC RING OR HETEROAROMATIC RING COMPOUNDS, PREPARATION METHOD THEREFOR AND MEDICAL USE THEREOF” (The National Institutes of Pharmaceutical R&D Co., Ltd., priority 2019, published 2022).
